Measurements published in ChEMBL document CHEMBL1201862, “PubChem BioAssay data set” (2004).
Blank lines part the entries; values can stand above or below the molecule they belong to. Active and inactive are the calls of the source.

How the values were obtained:
HEK293 = assay: NOD2 signaling inhibitors in MDP-stimulated cells, cell-based, uHTS, luminescence (AID 2001); format: functional; settings: Homo sapiens
[1] = target: T1, Zinc finger protein mex-5 (Caenorhabditis elegans, UniProt Q9XUB2); assay: potency of MEX-5 RNA-binding blockers – biochemical, C. elegans, fluorescence polarization, dose response (AID 1960)
T1 sequence (Q9XUB2 whole entry): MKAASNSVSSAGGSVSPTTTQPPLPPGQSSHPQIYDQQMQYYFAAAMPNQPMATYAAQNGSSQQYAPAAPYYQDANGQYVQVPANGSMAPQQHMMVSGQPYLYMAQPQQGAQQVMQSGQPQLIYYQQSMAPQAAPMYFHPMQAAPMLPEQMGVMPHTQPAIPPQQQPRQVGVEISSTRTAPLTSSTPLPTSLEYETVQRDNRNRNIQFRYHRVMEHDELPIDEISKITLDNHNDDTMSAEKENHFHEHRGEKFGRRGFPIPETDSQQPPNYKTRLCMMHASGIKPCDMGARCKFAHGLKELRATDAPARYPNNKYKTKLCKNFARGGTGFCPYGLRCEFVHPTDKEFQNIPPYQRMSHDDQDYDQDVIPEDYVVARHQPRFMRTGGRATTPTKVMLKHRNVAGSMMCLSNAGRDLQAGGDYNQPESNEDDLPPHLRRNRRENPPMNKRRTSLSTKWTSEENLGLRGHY

[2] = target: T2, Histone-lysine N-methyltransferase NSD2 (Homo sapiens, UniProt O96028); format: biochemical
T2 sequence (O96028 whole entry): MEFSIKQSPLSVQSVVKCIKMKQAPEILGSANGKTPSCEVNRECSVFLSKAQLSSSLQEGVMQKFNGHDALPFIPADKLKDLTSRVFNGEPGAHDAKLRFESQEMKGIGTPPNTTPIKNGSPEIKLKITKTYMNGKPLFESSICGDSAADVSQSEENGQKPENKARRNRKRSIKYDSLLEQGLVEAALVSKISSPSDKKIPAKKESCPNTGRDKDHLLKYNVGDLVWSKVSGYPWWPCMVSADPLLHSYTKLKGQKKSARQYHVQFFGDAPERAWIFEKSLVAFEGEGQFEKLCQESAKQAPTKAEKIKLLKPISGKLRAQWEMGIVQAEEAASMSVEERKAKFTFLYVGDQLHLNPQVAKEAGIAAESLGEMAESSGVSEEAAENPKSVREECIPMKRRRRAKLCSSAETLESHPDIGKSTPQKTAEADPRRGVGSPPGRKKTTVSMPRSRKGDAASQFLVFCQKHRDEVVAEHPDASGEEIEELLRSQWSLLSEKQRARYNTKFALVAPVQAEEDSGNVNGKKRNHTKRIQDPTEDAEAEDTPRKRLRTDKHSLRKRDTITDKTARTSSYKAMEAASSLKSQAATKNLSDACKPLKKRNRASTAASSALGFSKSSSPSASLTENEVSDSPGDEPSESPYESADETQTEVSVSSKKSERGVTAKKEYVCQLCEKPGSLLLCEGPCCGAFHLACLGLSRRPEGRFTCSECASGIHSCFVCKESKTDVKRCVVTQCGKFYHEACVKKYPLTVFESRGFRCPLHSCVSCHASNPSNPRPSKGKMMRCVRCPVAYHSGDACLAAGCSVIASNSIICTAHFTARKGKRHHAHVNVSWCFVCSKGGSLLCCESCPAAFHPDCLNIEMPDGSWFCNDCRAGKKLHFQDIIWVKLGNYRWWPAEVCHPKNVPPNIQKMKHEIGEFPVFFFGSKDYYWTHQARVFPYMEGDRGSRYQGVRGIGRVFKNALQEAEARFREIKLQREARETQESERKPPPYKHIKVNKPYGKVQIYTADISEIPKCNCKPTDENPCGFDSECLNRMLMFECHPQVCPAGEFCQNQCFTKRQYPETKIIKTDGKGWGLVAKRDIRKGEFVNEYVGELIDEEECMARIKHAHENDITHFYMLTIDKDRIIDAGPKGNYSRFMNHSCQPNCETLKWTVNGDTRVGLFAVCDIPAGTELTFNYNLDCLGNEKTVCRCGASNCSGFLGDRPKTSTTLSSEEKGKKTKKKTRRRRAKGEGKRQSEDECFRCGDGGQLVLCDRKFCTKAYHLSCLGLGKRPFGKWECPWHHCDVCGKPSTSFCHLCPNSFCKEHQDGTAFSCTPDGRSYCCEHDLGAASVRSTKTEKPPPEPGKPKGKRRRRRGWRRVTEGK

[3] = target: T3, Lysine-specific demethylase 4C (Homo sapiens, UniProt Q9H3R0); assay: inhibition of JMJD2C H3K9me3 demethylation – biochemical, DELFIA europium, cherry-picked samples, dose response (AID 488835); format: functional
T3 sequence (Q9H3R0 whole entry): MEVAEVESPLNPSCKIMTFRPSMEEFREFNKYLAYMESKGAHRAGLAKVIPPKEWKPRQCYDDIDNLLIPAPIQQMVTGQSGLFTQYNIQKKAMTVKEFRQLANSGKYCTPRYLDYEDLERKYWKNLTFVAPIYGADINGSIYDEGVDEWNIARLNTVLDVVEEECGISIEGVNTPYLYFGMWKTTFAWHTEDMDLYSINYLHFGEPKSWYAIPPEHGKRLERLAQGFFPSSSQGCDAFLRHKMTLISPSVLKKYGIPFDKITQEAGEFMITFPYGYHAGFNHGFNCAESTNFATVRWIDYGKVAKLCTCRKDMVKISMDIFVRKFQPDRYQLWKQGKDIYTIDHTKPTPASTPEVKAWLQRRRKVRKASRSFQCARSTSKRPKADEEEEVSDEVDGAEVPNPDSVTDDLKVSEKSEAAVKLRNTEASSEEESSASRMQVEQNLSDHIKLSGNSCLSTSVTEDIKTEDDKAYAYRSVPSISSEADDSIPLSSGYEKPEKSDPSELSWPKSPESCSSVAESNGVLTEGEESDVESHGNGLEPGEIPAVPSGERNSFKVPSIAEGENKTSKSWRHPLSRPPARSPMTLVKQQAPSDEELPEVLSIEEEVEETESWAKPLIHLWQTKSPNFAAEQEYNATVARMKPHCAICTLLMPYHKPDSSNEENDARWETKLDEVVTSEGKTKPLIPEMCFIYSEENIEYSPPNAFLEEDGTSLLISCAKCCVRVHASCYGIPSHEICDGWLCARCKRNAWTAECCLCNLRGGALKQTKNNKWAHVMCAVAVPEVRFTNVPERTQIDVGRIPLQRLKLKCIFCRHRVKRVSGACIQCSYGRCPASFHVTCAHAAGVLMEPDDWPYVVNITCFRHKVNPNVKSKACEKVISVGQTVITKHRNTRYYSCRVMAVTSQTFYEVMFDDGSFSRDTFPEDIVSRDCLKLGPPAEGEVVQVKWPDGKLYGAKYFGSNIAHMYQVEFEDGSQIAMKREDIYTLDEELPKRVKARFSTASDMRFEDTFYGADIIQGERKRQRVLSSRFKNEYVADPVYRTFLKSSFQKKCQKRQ

[4] = HEK-293T viability loss after treatment – luminescence, T-cell screen hits, cytotoxicity control for TCR NF-kB inhibitor project, dose response (AID 489026); format: functional, cell-based;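 also: cells exposed to compound about 14 hours before the viability readout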
Fatty acid synthase = Fatty acid synthase (Homo sapiens, UniProt P49327); assay: inhibition of human FAS-TE enzyme activity – biochemical, endpoint fluorescence intensity, uHTS hits, dose response (AID 624327); format: functional;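 also: fluorescence from hydrolysis of an O-methyl fluorescein acyl ester substrate by the enzyme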
Sequence of Fatty acid synthase (P49327 whole entry): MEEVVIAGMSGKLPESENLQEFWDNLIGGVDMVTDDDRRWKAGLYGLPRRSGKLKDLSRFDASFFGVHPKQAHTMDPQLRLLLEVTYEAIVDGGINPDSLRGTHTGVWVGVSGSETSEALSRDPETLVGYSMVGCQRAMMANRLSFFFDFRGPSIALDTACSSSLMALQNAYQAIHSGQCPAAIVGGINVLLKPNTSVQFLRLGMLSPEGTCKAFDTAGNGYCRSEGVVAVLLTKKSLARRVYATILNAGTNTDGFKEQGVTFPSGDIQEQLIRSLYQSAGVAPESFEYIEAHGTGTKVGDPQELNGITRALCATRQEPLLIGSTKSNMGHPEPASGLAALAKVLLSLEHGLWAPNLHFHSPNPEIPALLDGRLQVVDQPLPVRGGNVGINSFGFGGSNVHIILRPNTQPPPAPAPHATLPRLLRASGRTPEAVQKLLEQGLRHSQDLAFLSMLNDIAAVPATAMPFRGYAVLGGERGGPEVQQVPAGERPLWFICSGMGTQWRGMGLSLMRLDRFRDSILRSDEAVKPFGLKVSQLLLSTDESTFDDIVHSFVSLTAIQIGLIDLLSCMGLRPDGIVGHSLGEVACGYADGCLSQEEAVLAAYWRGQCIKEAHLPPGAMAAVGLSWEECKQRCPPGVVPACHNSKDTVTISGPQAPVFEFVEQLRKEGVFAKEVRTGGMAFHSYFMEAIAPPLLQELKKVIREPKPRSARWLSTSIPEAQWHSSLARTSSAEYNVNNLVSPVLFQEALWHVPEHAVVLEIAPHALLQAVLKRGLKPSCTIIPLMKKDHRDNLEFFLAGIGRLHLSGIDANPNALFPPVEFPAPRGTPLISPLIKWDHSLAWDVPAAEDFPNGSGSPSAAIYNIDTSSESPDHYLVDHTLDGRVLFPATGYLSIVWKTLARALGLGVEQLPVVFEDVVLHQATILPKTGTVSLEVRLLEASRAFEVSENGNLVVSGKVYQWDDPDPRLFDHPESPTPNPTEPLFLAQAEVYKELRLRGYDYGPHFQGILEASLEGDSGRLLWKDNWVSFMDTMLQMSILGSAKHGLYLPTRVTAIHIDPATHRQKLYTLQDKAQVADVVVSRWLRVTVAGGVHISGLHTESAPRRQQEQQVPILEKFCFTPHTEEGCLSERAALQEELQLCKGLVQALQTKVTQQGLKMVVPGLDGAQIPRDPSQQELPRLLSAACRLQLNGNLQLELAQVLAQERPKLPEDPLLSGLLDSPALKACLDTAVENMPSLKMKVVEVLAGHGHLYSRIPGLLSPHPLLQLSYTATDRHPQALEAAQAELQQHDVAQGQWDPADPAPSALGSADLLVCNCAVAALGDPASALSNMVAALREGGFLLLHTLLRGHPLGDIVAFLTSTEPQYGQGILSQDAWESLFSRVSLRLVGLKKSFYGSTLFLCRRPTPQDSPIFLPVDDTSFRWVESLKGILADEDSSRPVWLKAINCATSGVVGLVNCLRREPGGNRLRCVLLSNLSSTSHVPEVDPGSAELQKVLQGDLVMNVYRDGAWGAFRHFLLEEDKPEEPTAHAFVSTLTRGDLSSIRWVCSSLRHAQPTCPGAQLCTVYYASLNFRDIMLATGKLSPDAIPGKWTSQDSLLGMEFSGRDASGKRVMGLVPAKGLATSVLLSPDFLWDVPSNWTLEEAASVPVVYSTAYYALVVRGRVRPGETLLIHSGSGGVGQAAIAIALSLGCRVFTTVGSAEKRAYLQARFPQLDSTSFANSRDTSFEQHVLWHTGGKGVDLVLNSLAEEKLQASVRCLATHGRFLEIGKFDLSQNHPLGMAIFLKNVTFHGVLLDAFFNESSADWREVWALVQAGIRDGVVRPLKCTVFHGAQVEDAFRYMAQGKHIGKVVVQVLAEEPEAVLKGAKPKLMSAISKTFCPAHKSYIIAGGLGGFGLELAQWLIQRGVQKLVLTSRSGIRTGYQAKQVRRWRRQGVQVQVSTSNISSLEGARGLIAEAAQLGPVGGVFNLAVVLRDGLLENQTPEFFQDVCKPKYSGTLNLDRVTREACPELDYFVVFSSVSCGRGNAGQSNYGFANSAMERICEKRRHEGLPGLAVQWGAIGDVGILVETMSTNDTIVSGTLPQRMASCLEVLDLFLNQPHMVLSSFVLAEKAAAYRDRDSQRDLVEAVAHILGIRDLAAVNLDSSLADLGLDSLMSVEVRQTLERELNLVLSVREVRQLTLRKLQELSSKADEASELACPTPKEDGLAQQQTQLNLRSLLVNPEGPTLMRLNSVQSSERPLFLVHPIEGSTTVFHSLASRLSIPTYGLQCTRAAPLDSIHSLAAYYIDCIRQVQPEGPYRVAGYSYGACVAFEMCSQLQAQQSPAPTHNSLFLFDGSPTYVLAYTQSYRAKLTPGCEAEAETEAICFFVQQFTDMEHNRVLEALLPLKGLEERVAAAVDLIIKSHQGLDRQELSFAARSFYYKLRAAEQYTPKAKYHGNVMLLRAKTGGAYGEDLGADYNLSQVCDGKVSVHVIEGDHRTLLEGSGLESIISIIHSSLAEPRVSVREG

SMILES: O=C(CNc1cccc2ccccc12)N/N=C/c1ccc([N+](=O)[O-])o1
IC50 (HEK293): 11.5 µM (inactive)

SMILES: O=C(O)CSc1cc(NS(=O)(=O)c2ccc(Br)cc2)c2ccccc2c1O
EC50 [1]: 8.17 µM (active) | AC50 [2]: 1.65 µM (active)

AC50 [3]: 30.4 µM (active)
SMILES: O=C1NC(=S)N/C1=C/c1cc2c(cc1[N+](=O)[O-])OCO2

SMILES: Cc1ccc(NC(=O)C2=C(c3ccccc3)S(=O)(=O)CCS2(=O)=O)cc1
IC50 [4]: > 80 µM (inactive) | IC50 (Fatty acid synthase): 3.96 µM (active)
